Experimental data published in patent US4357344A, “Polybutylbenzylphenols and benzyl-3,4-methylenedioxybenzenes in insect population control” (The United States of America as represented by the …, priority 1979, dated 1982).

What was measured:
[1] = test system: screwworm flies; experiment: Anti-procreant tests on screw-worm fly; assay type: in vivo
Method: These tests were conducted on mass-reared screwworm flies which had been obtained as pupae from the screwworm fly plant at Mission, Texas. The flies were held in cages with water and undiluted corn syrup in a colony room maintained at about 27° C. and 60% relative humidity (RH) with a 12-hour photoperiod beginning at 6 a.m. Adults that emerged were lightly anesthetized with CO2 for ease of manipulation the same day.
The mixtures obtained were fed to the flies in "Dixie" paper cups, 7 cm diameter, and rice hulls were placed on the surface of the food to prevent the flies from getting stuck in the viscous mixture.
Initially, varying concentrations of a chemosterilant were fed to the flies for the first 5 days of life. Thereafter, the chemosterilant was replaced with pure corn syrup. On the 7th day, 3 replicates of 10 flies were stimulated to oviposit and the flies which oviposited were checked for insemination by an examination of the spermathecae for live sperms. The total number of eggs per fly was estimated and the hatchability of these eggs (fertility) was determined 24 hours later (at 37° C.). Observations were made to determine percentage of egg hatch.

[2] = test system: mice; experiment: Oral toxicity in mice; settings: mouse, in vivo, po
Method: (§1) Compounds D, A, and B were also assayed for oral toxicity in mice.

[3] = Oral toxicity in mice; settings: mouse, in vivo; oral, mice; read-out: Estimated LD50
Method: as §1

[4] = test system: early fourth-stage larvae of the common malaria mosquito (Anopheles quadrimaculatus); experiment: Growth-inhibition tests on mosquito larvae; assay type: in vivo; settings: in water; corrected by Abbott's formula
Method: The compound to be tested was added to one liter of water until the final concentration thereof was a growth-inhibiting amount. Fifty early fourth-stage larvae of the common malaria mosquito (Anopheles quadrimaculatus) were placed on this water. Larval food was administered daily. Dead larvae and pupae were removed, counted, and discarded daily. Live pupae were removed, rinsed, and transferred to a cup of distilled water. The cup was placed in an emergence cage, and the emerging adults, if any, were maintained on a sugar-water diet.
The effectiveness of the compound in inhibiting growth was determined by adding the number of dead larvae and pupae and the number of adults that were dead, unable to complete eclosion, and malformed. This sum was corrected by Abbott's formula (to adjust for the number of larvae or pupae which would die naturally) and designated as the GI (growth inhibition). The results are expressed as GI-90, i.e., the concentration of growth inhibitor in ppm that would prevent and/or retard growth in 90% of the treated larvae.

[5] = Solubility in water; assay type: physicochemical
[6] = test system: flies (family Muscidae); experiment: Chemosterilancy tests (egg hatch and pupal development; Examples 6-9); assay type: in vivo
Method: (§2) The compound to be tested was administered in a standard fly food containing 6 parts of sugar, 6 parts of powdered non-fat dry milk, and 1 part of powdered egg yolk. Treated food was prepared by mixing an appropriate amount of a solution or suspension of CBCP in acetone with a batch of the food. The acetone was evaporated (4-6 hours) and the dry material was repulverized.
Chemosterilancy tests: If eggs were laid in the above tests, the cups were filled with water and stirred to break up the egg masses. A random sample of 100 eggs from each cup was collected and placed on a small piece of black cloth which was then laid on top of moist larva-rearing medium in a rearing container. Observations were made to determine percentage of egg hatch and pupal development.
The procedure outlined in Example 6 was followed using a Group II compound.
The procedure outlined in Example 6 was followed using Group III compounds. The results are summarized below:
The procedure outlined in Example 6 was followed substituting a Group IV compound for those of Group I. The table below provides a summary of results.

[7] = test system: flies (family Muscidae); experiment: Oviposition inhibition tests (treated fly food; Examples 6-9); assay type: in vivo
Method: The compound to be tested was administered in a standard fly food containing 6 parts of sugar, 6 parts of powdered non-fat dry milk, and 1 part of powdered egg yolk. Treated food was prepared by mixing an appropriate amount of a solution or suspension of CBCP in acetone with a batch of the food. The acetone was evaporated (4-6 hours) and the dry material was repulverized. Oviposition inhibition tests: Samples of treated food with a container of water were placed in cages containing 100 newly-emerged adult flies (family Muscidae). After the flies had been exposed to the treated diet for 6-7 days, 1/2 inch of moist standard fly larva-rearing medium (CSMA) in souffle cups was placed in the cages for oviposition. After 4-6 hours, the cup was removed and examined for eggs. […] The procedure outlined in Example 6 was followed using a Group II compound. The procedure outlined in Example 6 was followed using Group III compounds. The results are summarized below: The procedure outlined in Example 6 was followed substituting a Group IV compound for those of Group I. The table below provides a summary of results.

[8] = test system: Salmonella tester strains TA-100, TA-98, TA-1537; experiment: Ames' Salmonella/microsome mutagenicity procedure; settings: for mutagenic activity: TA-100, TA-98, TA-1537, without or with metabolic activation
Method: The mutagenic activity of D, A, B, M, N, and CC were tested by the standard Ames' Salmonella/microsome procedure, which is reported to show better than 90% correlation with development of mammalian cancers (Ames et al., Mutation Research, Vol. 31, p. 347, 1975; McCann et al., Proc. Nat. Acad. Sci., Vol. 72, p. 5135, 1975). Tester strains TA-100, TA-98, TA-1537 and the plate test method were used, employing concentrations of 10, 100, 1000, and 10,000 […]. The metabolic activation mixture (S-9 mix) used the 9000 times g supernatant of Arochlor-1254-induced rat liver homogenate at a level of 100 μl per ml of S-9 mix.

[9] = test system: male flies (family Muscidae); experiment: Sterilization of treated males crossed with virgin untreated females; assay type: in vivo
Method: as §2
These flies were maintained on untreated fly food. After 5 days, cups containing the larval-rearing medium was provided as previously described and a 100-egg sample was collected and place on moist larve-rearing medium. About a week after oviposition, examination was made to determine the percentage of hatched eggs and of pupae developed.

Structure (SMILES) | Inhibition of embryogenesis ([1]; 0.10% in food) | Oviposition ([1]; 0.10% in food) | Survival, Female ([1]; 0.10% in food) | Survival, Male ([1]; 0.10% in food) | oral toxicity (in words) [2] | LD50 [3] | GI-90 (concentration of growth inhibitor that would prevent and/or retard growth in 90% of the treated larvae) [4] | solubility in water [5] | Egg hatch ([6]; 0.01% in food) | Pupal development ([6]; 0.01% in food) | Egg hatch ([6]; 0.025% in food) | Pupal development ([6]; 0.025% in food) | Egg hatch ([6]; 0.25% in food) | Pupal development ([6]; 0.25% in food) | Mortality, parent generation ([7]; 0.01% in food) | Mortality, parent generation ([7]; 0.025% in food) | Mortality, parent generation ([7]; 0.05% in food) | Mortality, parent generation ([7]; 0.1% in food) | Mortality, parent generation ([7]; 0.25% in food) | Mortality, parent generation ([7]; 1.0% in food) | further results
CC(c1ccccc1)c1cc(C(C)(C)C)cc(C(C)(C)C)c1O (stereo not drawn) [A, 4,6-Di-t-butyl-2-α-methylbenzylphenol] | 100% | 90.0% | 68.0% | 47.0% | only slightly toxic | 2510 mg/kg | 0.039 ppm | low solubility in water | 39% | 39% | 28% | 28% | 0% | 0% | 0% | 0% | 0% | 0% | 0% |  | Inhibition of embryogenesis ([1]; 0.01% in food): 100%; Oviposition ([1]; 0.01% in food): 63.3%; Survival, Female ([1]; 0.01% in food): 71.3%; Survival, Male ([1]; 0.01% in food): 54.0%; Egg hatch ([6]; 0.05% in food): 0%; Pupal development ([6]; 0.05% in food): 0%; Egg hatch ([6]; 0.1% in food): 0%; Pupal development ([6]; 0.1% in food): 0%; mutagenic activity [8]: non-mutagenic
COc1ccc(C(C)c2cc(C(C)(C)C)cc(C(C)(C)C)c2O)cc1 (stereo not drawn) [B, 4,6-di-t-butyl-2-(α-methyl-4-methoxybenzyl)phenol] |  |  |  |  | only slightly toxic | 3550 mg/kg |  |  |  |  |  |  | 18% | 18% |  |  |  |  | 0% | 0% | Egg hatch ([6]; 0.5% in food): 0%; Pupal development ([6]; 0.5% in food): 0%; Egg hatch ([6]; 1.0% in food): 0%; Pupal development ([6]; 1.0% in food): 0%; Mortality, parent generation ([7]; 0.5% in food): 0%; mutagenic activity [8]: non-mutagenic
COc1ccc(Cc2cc(C(C)(C)C)cc(C(C)(C)C)c2O)cc1 [C, 4,6-Di-t-butyl-2-(4-methoxybenzyl)phenol] | 100% | 75.0% | 66.0% | 63.0% |  |  |  | low solubility in water | 45% | 45% | 0% | 0% | 0% | 0% | 0% | 0% | 0% | 0% | 0% | 0% | sterilization of males ([9]; 0.25% in food): 100%; Egg hatch ([6]; 0.05% in food): 0%; Pupal development ([6]; 0.05% in food): 0%; Egg hatch ([6]; 0.1% in food): 0%; Pupal development ([6]; 0.1% in food): 0%; Oviposition ([7]; 0.25% in food): Normal; Mortality, parent generation ([7]; 0.5% in food): 0%; Oviposition ([7]; 0.5% in food): None; Oviposition ([7]; 1.0% in food): None
C=CCc1cc2c(cc1Cc1ccc(OC)cc1)OCO2 [CC, (4-Methoxybenzyl)-3,4-methylenedioxy-6-(2-propenyl)benzene] | 100% | 65.0% | 92.7% | 45.0% |  |  | 0.2 ppm | low solubility in water | 15% | 15% | 0% | 0% |  |  | 0% | 0% | 0% | 0% | 50% |  | mutagenic activity [8]: non-mutagenic
CC(C)(C)c1cc(Cc2ccccc2)c(O)c(C(C)(C)C)c1 [D, 2,4-Di-t-butyl-6-benzylphenol] | 100% | 95.0% | 88.7% | 55.0% | only slightly toxic | 3430 mg/kg |  | low solubility in water |  |  |  |  | 0% | 0% |  |  | 0% | 0% | 0% | 0% | Inhibition of embryogenesis ([1]; 0.01% in food): 95.2%; Oviposition ([1]; 0.01% in food): 66.7%; Survival, Female ([1]; 0.01% in food): 49.3%; Survival, Male ([1]; 0.01% in food): 46.0%; sterilization of males ([9]; 1.0% in food): 100%; Egg hatch ([6]; 0.05% in food): 90%; Pupal development ([6]; 0.05% in food): 90%; Egg hatch ([6]; 0.1% in food): 0%; Pupal development ([6]; 0.1% in food): 0%; Egg hatch ([6]; 0.5% in food): 0%; Pupal development ([6]; 0.5% in food): 0%; Egg hatch ([6]; 1.0% in food): 0%; Pupal development ([6]; 1.0% in food): 0%; Mortality, parent generation ([7]; 0.5% in food): 0%; revertant frequencies ([8]; 10-10,000 μg/plate in TA-100 and S-9): exceeded the mean control value plus two or three standard deviations; mutagenic response relative to known mutagenic agents which revert this strain ([8]; TA-100 and S-9): extremely weak
CCCOc1cc2c(cc1C(C)c1ccc(OC)cc1)OCO2 (stereo not drawn) [I, (α-Methyl-4-methoxybenzyl)-3,4-methylenedioxy-6-n-propoxybenzene] |  |  |  |  |  |  | 0.042 ppm |  | 63% | 63% | 38% | 38% |  |  | 0% | 0% |  |  |  | 0% | sterilization of males ([9]; 1.0% in food): 100%
